# *1 amine or outer side, *2 acyl side, *3 side chain or, on linkers, in order; H or OH if unused. Where a SMILES comes first, the peptide text is derived from it. Side-chain parts run from the residue outwards. [ ]: non-standard residue; d: D form. The star is where a group is joined. Trp(5-OH) = N[C@@H](Cc1c[nH]c2ccc(O)cc12)C(=O)O; Lys(Me3) = C[N+](C)(C)CCCC[C@H](N)C(=O)O; PEG8 = NCCOCCOCCOCCOCCOCCOCCOCCOCCC(=O)O; γGlu = O=C(O)[C@H](CCC(=O)[*:2])N[*:1]; 1Nal = N[C@@H](Cc1cccc2ccccc12)C(=O)O; Arg(Me) = CNC(=N)NCCC[C@H](N)C(=O)O; Stearoyl = CCCCCCCCCCCCCCCCCC(=O)*; Palmitoyl = CCCCCCCCCCCCCCCC(=O)*; Nle = CCCC[C@H](N)C(=O)O; AEEA = NCCOCCOCC(=O)O; Aib = CC(C)(N)C(=O)O
# Target: T1, RXFP1 (Homo sapiens, UniProt Q9HBX9)
# T1 construct: OVCAR5 cells expressing endogenous RXFP1; endogenous in cells; host or cells: OVCAR5 cells
# T1 sequence (Q9HBX9 1-757): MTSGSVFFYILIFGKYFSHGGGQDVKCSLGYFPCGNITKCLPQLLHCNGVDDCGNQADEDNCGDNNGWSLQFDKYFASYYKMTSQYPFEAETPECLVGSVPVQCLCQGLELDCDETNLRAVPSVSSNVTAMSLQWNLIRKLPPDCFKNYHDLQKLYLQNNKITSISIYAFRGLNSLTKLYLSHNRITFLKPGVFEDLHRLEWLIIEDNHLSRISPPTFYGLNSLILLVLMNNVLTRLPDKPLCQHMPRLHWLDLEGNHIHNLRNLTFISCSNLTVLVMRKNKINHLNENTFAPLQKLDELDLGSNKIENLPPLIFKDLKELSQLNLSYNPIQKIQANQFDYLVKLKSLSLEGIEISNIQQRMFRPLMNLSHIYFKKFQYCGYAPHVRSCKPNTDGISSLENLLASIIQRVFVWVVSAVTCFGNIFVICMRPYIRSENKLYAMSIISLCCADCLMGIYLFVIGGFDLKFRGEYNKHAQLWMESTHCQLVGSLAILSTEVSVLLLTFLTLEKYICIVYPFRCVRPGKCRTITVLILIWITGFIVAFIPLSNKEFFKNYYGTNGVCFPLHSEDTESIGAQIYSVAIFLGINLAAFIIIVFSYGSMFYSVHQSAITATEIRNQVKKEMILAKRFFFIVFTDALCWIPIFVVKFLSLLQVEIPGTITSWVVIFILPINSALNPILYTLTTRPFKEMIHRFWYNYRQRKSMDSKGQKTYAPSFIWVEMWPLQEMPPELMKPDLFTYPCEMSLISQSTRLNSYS
# Test: OVCAR5 cAMP assay (HTRF), RXFP1 agonist activity
# Format: cell-based
# Settings: for EC50: OVCAR5 cells, cAMP HTRF, read-out: EC50 (nM), OVCAR 5 cells (cAMP); for Emax: OVCAR-5, maximal cAMP relative to H2-relaxin maximum (100%), read-out: EMax, OVCAR 5 cells (cAMP)
# Summary of the method: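 OVCAR5 cells (endogenous RXFP1) pretreated 40 min at 37° C with 1 mM IBMX, then exposed to peptides in serum-free medium for 30 min at 37° C. Lysate cAMP read by HTRF; EC50 from variable-slope sigmoidal fit; Emax as % of H2-relaxin maximal cAMP in same run.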
EC50 [nM],Emax [%],Compound
,68,CCCCCCCCCCCCCCCCCC(=O)N[C@@H](CCC(=O)N[C@@H](CCC(=O)N[C@@H](CCC(=O)NCCOCCOCC(=O)NCCOCCOCC(=O)NCCOCCOCC(=O)NCCCC[C@H](NC(=O)[C@H](CCCCN)NC(=O)[C@H](CCCNC(=N)N)NC(=O)C(C)(C)NC(=O)[C@H](CO)NC(=O)[C@H](Cc1cccc2ccccc12)NC(=O)[C@@H](NC(=O)[C@H](CO)NC(=O)[C@H](CCCC)NC(=O)CNC(=O)[C@H](CCC(=O)O)NC(=O)C(C)(C)NC(=O)C(C)(C)NC(=O)[C@@H](NC(=O)[C@H](CCCCNC(C)=O)NC(=O)C(C)(C)NC(=O)[C@H](CCCNC(=N)N)NC(=O)[C@@H](NC(=O)[C@H](CCCCN)NC(=O)[C@H](CCC(=O)O)NC(=O)[C@H](CCCNC(=N)N)NC(=O)CNC(=O)[C@H](CCC(=O)O)NC(=O)[C@H](CC(C)C)NC(C)=O)C(C)C)[C@@H](C)CC)[C@@H](C)O)C(N)=O)C(=O)O)C(=O)O)C(=O)O [compound 80] (Ac-LEGREKVR[Aib]K(Ac)I[Aib][Aib]EG[Nle]ST[1Nal]S[Aib]RKK([AEEA-AEEA-AEEA-γGlu-γGlu-γGlu-Stearoyl])-NH2)
,86,CCCCCCCCCCCCCCCC(=O)N[C@@H](CCC(=O)NCCCC[C@H](NC(=O)CC[C@H](NC(=O)CC[C@H](NC(=O)COCCOCCNC(=O)COCCOCCNC(=O)[C@H](CCCCNC(C)=O)NC(=O)[C@H](CCCCN)NC(=O)[C@H](CCCNC(=N)N)NC(=O)C(C)(C)NC(=O)[C@H](CO)NC(=O)[C@H](Cc1c[nH]c2ccccc12)NC(=O)[C@@H](NC(=O)[C@H](CO)NC(=O)[C@H](CCCC)NC(=O)CNC(=O)[C@H](CCC(=O)O)NC(=O)C(C)(C)NC(=O)C(C)(C)NC(=O)[C@@H](NC(=O)[C@H](CCC(N)=O)NC(=O)[C@H](C)NC(=O)[C@H](CCCNC(=N)N)NC(=O)[C@@H](NC(=O)[C@H](CCCCN)NC(=O)[C@H](CCC(=O)O)NC(=O)[C@H](CCCNC(=N)N)NC(=O)CNC(=O)[C@H](CCC(=O)O)NC(=O)[C@H](CC(C)C)NC(C)=O)C(C)C)[C@@H](C)CC)[C@@H](C)O)C(=O)O)C(=O)O)C(N)=O)C(=O)O [compound 118] (Ac-LEGREKVRAQI[Aib][Aib]EG[Nle]STWS[Aib]RKK(Ac)[AEEA][AEEA][γGlu][γGlu]K([γGlu-Palmitoyl])-NH2)
0.14,90,CCCCCCCCCCCCCCCCCC(=O)N[C@@H](CCC(=O)N[C@@H](CCC(=O)N[C@@H](CCC(=O)NCCOCCOCC(=O)NCCOCCOCC(=O)NCCOCCOCC(=O)NCCCC[C@H](NC(=O)[C@H](CCCCNC(C)=O)NC(=O)[C@H](CCCCN)NC(=O)[C@H](CCCNC(=N)N)NC(=O)C(C)(C)NC(=O)[C@H](CO)NC(=O)[C@H](Cc1c[nH]c2ccc(O)cc12)NC(=O)[C@@H](NC(=O)[C@H](CO)NC(=O)[C@H](CCCC)NC(=O)CNC(=O)[C@H](CCC(=O)O)NC(=O)C(C)(C)NC(=O)C(C)(C)NC(=O)[C@@H](NC(=O)[C@H](CCCCNC(C)=O)NC(=O)[C@H](C)NC(=O)[C@H](CCCNC(=N)N)NC(=O)[C@@H](NC(=O)[C@H](CCCCN)NC(=O)[C@H](CCC(=O)O)NC(=O)[C@H](CCCNC(=N)N)NC(=O)CNC(=O)[C@H](CCC(=O)O)NC(=O)[C@H](CC(C)C)NC(C)=O)C(C)C)[C@@H](C)CC)[C@@H](C)O)C(N)=O)C(=O)O)C(=O)O)C(=O)O [compound 158] (Ac-LEGREKVRAK(Ac)I[Aib][Aib]EG[Nle]ST[Trp(5-OH)]S[Aib]RKK(Ac)K([AEEA-AEEA-AEEA-γGlu-γGlu-γGlu-Stearoyl])-NH2)

# The next lines start with the compound.
Compound,EC50 [nM],Emax [%]
CCCCCCCCCCCCCCCCCC(=O)N[C@@H](CCC(=O)N[C@@H](CCC(=O)N[C@@H](CCC(=O)NCCOCCOCC(=O)NCCOCCOCC(=O)NCCOCCOCC(=O)NCCCC[C@H](NC(=O)[C@H](CCCCNC(C)=O)NC(=O)[C@H](CCCC[N+](C)(C)C)NC(=O)[C@H](CCCNC(=N)NC)NC(=O)C(C)(C)NC(=O)[C@H](CO)NC(=O)[C@H](Cc1c[nH]c2ccccc12)NC(=O)[C@@H](NC(=O)[C@H](CO)NC(=O)[C@H](CCCC)NC(=O)CNC(=O)[C@H](CCC(=O)O)NC(=O)C(C)(C)NC(=O)C(C)(C)NC(=O)[C@@H](NC(=O)[C@H](CCCCNC(C)=O)NC(=O)[C@H](C)NC(=O)[C@H](CCCNC(=N)N)NC(=O)[C@@H](NC(=O)[C@H](CCCCN)NC(=O)[C@H](CCC(=O)O)NC(=O)[C@H](CCCNC(=N)N)NC(=O)CNC(=O)[C@H](CCC(=O)O)NC(=O)[C@H](CC(C)C)NC(C)=O)C(C)C)[C@@H](C)CC)[C@@H](C)O)C(N)=O)C(=O)O)C(=O)O)C(=O)O [compound 137] (Ac-LEGREKVRAK(Ac)I[Aib][Aib]EG[Nle]STWS[Aib][Arg(Me)][Lys(Me3)]K(Ac)K([AEEA-AEEA-AEEA-γGlu-γGlu-γGlu-Stearoyl])-NH2),0.21,92
CCCCCCCCCCCCCCCC(=O)N[C@@H](CCC(=O)N[C@@H](CCC(=O)N[C@@H](CCC(=O)NCCOCCOCC(=O)NCCCC[C@H](NC(=O)[C@H](CCCCN)NC(=O)[C@H](CCCNC(=N)N)NC(=O)C(C)(C)NC(=O)[C@H](CO)NC(=O)[C@H](Cc1c[nH]c2ccccc12)NC(=O)[C@@H](NC(=O)[C@H](CO)NC(=O)[C@H](CCCC)NC(=O)CNC(=O)[C@H](CCC(=O)O)NC(=O)C(C)(C)NC(=O)C(C)(C)NC(=O)[C@@H](NC(=O)[C@H](CCC(N)=O)NC(=O)[C@H](C)NC(=O)[C@H](CCCNC(=N)N)NC(=O)[C@@H](NC(=O)[C@H](CCCCN)NC(=O)[C@H](CCC(=O)O)NC(=O)[C@H](CCCNC(=N)N)NC(=O)CNC(=O)[C@H](CCC(=O)O)NC(=O)[C@H](CC(C)C)NC(C)=O)C(C)C)[C@@H](C)CC)[C@@H](C)O)C(N)=O)C(=O)O)C(=O)O)C(=O)O [compound 55] (Ac-LEGREKVRAQI[Aib][Aib]EG[Nle]STWS[Aib]RKK([AEEA-γGlu-γGlu-γGlu-Palmitoyl])-NH2),,94
CCCCCCCCCCCCCCCCCC(=O)N[C@@H](CCC(=O)N[C@@H](CCC(=O)N[C@@H](CCC(=O)NCCOCCOCC(=O)NCCOCCOCC(=O)NCCOCCOCC(=O)NCCCC[C@H](NC(=O)[C@H](CCCCNC(C)=O)NC(=O)[C@H](CCCCN)NC(=O)[C@H](CCCNC(=N)NC)NC(=O)C(C)(C)NC(=O)[C@H](CO)NC(=O)[C@H](Cc1c[nH]c2ccccc12)NC(=O)[C@@H](NC(=O)[C@H](CO)NC(=O)[C@H](CCCC)NC(=O)CNC(=O)[C@H](CCC(=O)O)NC(=O)C(C)(C)NC(=O)C(C)(C)NC(=O)[C@@H](NC(=O)[C@H](CCCCNC(C)=O)NC(=O)[C@H](C)NC(=O)[C@H](CCCNC(=N)N)NC(=O)[C@@H](NC(=O)[C@H](CCCCN)NC(=O)[C@H](CCC(=O)O)NC(=O)[C@H](CCCNC(=N)N)NC(=O)CNC(=O)[C@H](CCC(=O)O)NC(=O)[C@H](CC(C)C)NC(C)=O)C(C)C)[C@@H](C)CC)[C@@H](C)O)C(N)=O)C(=O)O)C(=O)O)C(=O)O [compound 133] (Ac-LEGREKVRAK(Ac)I[Aib][Aib]EG[Nle]STWS[Aib][Arg(Me)]KK(Ac)K([AEEA-AEEA-AEEA-γGlu-γGlu-γGlu-Stearoyl])-NH2),0.01,83
CCCCCCCCCCCCCCCC(=O)N[C@@H](CCC(=O)N[C@@H](CCC(=O)N[C@@H](CCC(=O)NCCCC[C@H](NC(=O)CCOCCOCCOCCOCCOCCOCCOCCOCCNC(=O)[C@H](CCCCNC(C)=O)NC(=O)[C@H](CCCCN)NC(=O)[C@H](CCCNC(=N)N)NC(=O)C(C)(C)NC(=O)[C@H](CO)NC(=O)[C@H](Cc1c[nH]c2ccccc12)NC(=O)[C@@H](NC(=O)[C@H](CO)NC(=O)[C@H](CCCC)NC(=O)CNC(=O)[C@H](CCC(=O)O)NC(=O)C(C)(C)NC(=O)C(C)(C)NC(=O)[C@@H](NC(=O)[C@H](CCCCNC(C)=O)NC(=O)[C@H](C)NC(=O)[C@H](CCCNC(=N)N)NC(=O)[C@@H](NC(=O)[C@H](CCCCN)NC(=O)[C@H](CCC(=O)O)NC(=O)[C@H](CCCNC(=N)N)NC(=O)CNC(=O)[C@H](CCC(=O)O)NC(=O)[C@H](CC(C)C)NC(C)=O)C(C)C)[C@@H](C)CC)[C@@H](C)O)C(N)=O)C(=O)O)C(=O)O)C(=O)O [compound 181] (Ac-LEGREKVRAK(Ac)I[Aib][Aib]EG[Nle]STWS[Aib]RKK(Ac)[PEG8]K([γGlu-γGlu-γGlu-Palmitoyl])-NH2),,79
CCCCCCCCCCCCCCCCCC(=O)N[C@@H](CCC(=O)N[C@@H](CCC(=O)N[C@@H](CCC(=O)NCCOCCOCC(=O)NCCOCCOCC(=O)NCCOCCOCC(=O)NCCCC[C@H](NC(=O)[C@H](CCCCN)NC(=O)[C@H](CCCCN)NC(=O)[C@H](CCCNC(=N)N)NC(=O)C(C)(C)NC(=O)[C@H](CO)NC(=O)[C@H](Cc1c[nH]c2ccccc12)NC(=O)[C@@H](NC(=O)[C@H](CO)NC(=O)[C@H](CCCC)NC(=O)CNC(=O)[C@H](CCC(=O)O)NC(=O)C(C)(C)NC(=O)C(C)(C)NC(=O)[C@@H](NC(=O)[C@H](CCC(N)=O)NC(=O)[C@H](CC(C)C)NC(=O)[C@H](CCCNC(=N)N)NC(=O)[C@@H](NC(=O)[C@H](CCCCN)NC(=O)[C@H](CCC(=O)O)NC(=O)[C@H](CCCNC(=N)N)NC(=O)CNC(=O)[C@H](CCC(=O)O)NC(=O)[C@H](CC(C)C)NC(C)=O)C(C)C)[C@@H](C)CC)[C@@H](C)O)C(N)=O)C(=O)O)C(=O)O)C(=O)O [compound 77] (Ac-LEGREKVRLQI[Aib][Aib]EG[Nle]STWS[Aib]RKKK([AEEA-AEEA-AEEA-γGlu-γGlu-γGlu-Stearoyl])-NH2),,92
